Test results taken from patent US20070161704A1, “Pharmaceutical composition useful for treating chronic myeloid leukemia” (COUNCIL OF SCIENTIFIC AND INDUSTRIAL RESEARCH, priority 2002, published 2007).
“Also recorded” adds a separate entry of the source.

Tests used:
[1] = system: normal human peripheral blood mononuclear cells (HPBMC); assay: Cytokine production by HPBMC (ELISA); assay type: cell-based; conditions: for Concentration of Cytokines: IFN-γ / Concentration of Cytokines: IL-2 / Concentration of Cytokines: IL-6: HPBMC, 18 hrs
Excerpt: Supernatants were collected and quantitated for IL-2, IFN-γ, IL-6 by commercial ELISA.

[2] = system: Bcr-Abl positive CML cell line (K562); assay: Cell count assay, viable cells by trypan blue exclusion; assay type: cell-based, human
Description: Cell count assays were performed by plating cells in the presence of regular growth medium with or without indicated amount of extract, FIG. 2(a), fraction, FIG. 2(b), purified compound, FIG. 2(e), and its sodium salt, FIG. 2 (d). Each day, viable cells were counted as assessed by exclusion of try pan blue, FIG. 2(e).

K562 cells [3] = assay: Apoptosis by flow cytometry (annexin V-FITC/PI); assay type: cell-based, human; conditions: 67.5 nmole/10^5 cells, 6 h, FIG. 3a
Description: (§1) FIG. 3(a). Cells were left untreated (NT) or incubated with NaChl (67.5 nmole/10^5 cells) for 6 h and processed for flow cytometry after staining with annexin V-FITC and PI. Viable cells are in the lower left quadrant. Apoptotic cells stained by annexin V are in the lower right quadrant. Late stage apoptotic cells stained by both annexin V and PI are in the upper right quadrant.
(§2) Measurement of apoptosis by flow cytometry. Cells were left untreated or treated with NaChl (67.5 nmole/10^5 cells) for 6 h. After washing, cells were stained with fluorescein isothyocyanate (FITC) conjugated Annexin V and propidium iodide (PI) and analysed in a flow cytometer (FACS Calibur, Beckton Dickinson, USA).

normal PBMC = assay: Apoptosis by flow cytometry (annexin V-FITC/PI); assay type: cell-based, human; conditions: 67.5 nmole/10^5 cells, 6 h, FIG. 3a
Description: as §1, §2

[4] = system: PBMC of Bcr-Abl negative CML patients; assay: Apoptosis by flow cytometry (annexin V-FITC/PI); assay type: cell-based, human; conditions: 67.5 nmole/10^5 cells, 6 h, FIG. 3a
Description: as §1, §2

[5] = system: PBMC of Bcr-Abl positive CML patients; assay: Apoptosis by flow cytometry (annexin V-FITC/PI); assay type: cell-based, human; conditions: 67.5 nmole/10^5 cells, 6 h, FIG. 3a
Description: as §1, §2

K562 xenografts = assay: In vivo studies on K562 xenografts in nude mice; design: species or system mouse; conditions: 25-150 mg/kg intraperitoneally once a day for 10 days, FIG. 5
Description: FIG. 5. K562 cells embedded in Matrigel were staged in nude mice until tumors reached 200-300 mm^3. PBS (●), NaChl (25 mg/kg, □; 100 mg/kg, A; 150 mg/kg, ∘) were administered intraperitoneally once a day for ten days.
In vivo studies on K562 xenografts: K562 cells were suspended to 5×10^7 cells/ml in matrigel (BD Biosciences, Mountain View, Calif.; 1 volume of cells with 1 volume of cold Matrigel). Nude female mice 6 to 7 weeks of age were given injections of 0.2 ml of this suspension. Animals were left untreated until K562 xenografts reached 200-300 mm^3. […] Phosphate buffered saline (PBS, 0.2 ml per mouse) was used as a control. Animal studies were conducted under an approved institutional Animal Care and Use Committee protocol.

K562 cells [6] = assay: Morphology analysis by phase contrast microscopy; assay type: cell-based, human; conditions: 67.5 nmole/10^5 cells, 6 h, FIG. 2f
Description: (§3) FIG. 2. […] The flow diagram of purification is shown. […] Cell count assays were performed by plating cells in the presence of regular growth medium with or without indicated amount of extract, FIG. 2(a), fraction, FIG. 2(b), purified compound, FIG. […], and its sodium salt, FIG. 2 (d). Each day, viable cells were counted as assessed by exclusion of try pan blue, FIG. […]. Viability of PBMC obtained from three Ph^+ CML patients and one Ph^− CML patient after treatment with Na-Chl (67.5 nmole/10^5 cells), FIG. 2(f), Morphological changes of K562 cells after treatment with NaChl (67.5 nmole/10^5 cells) for 6 h (phase contrast micrographs, ×400).
Morphology analysis of Bcr-Abl positive CML cell line K562 by phase contrast microscopy. Cells were left untreated (NT) or treated with NaChl (Nachl; 67.5 nmole/10^5 cells) and viewed under phase contrast microscope (magnification ×400).

K562 cells [7] = assay: DNA cell cycle analysis (PI staining); assay type: cell-based, human; conditions: 1 or 2 days culture, FIG. 3b
Description: (§4) FIG. 3(b). Treatment with NaChl results in early cell cycle arrest followed by apoptosis in Ph^+ cells. Cells were cultured in the presence or absence of NaChl. After 1 or 2 days in culture, cells were collected, permeabilized, and stained with PI for DNA content analysis. Gates were set to assess the percentages of dead (<2n DNA, M1). G0/G1 (2n DNA, M2), and S+G2+M (>2n DNA, M3) cells.
(§5) DNA cell cycle analysis. Cells were cultured with NaChl as described in example 5. After 1 or 2 days culture, cells were collected, permeabilized and stained with PI for DNA cell cycle analysis.

[8] = system: PBMC of Bcr-Abl positive CML patients; assay: DNA cell cycle analysis (PI staining); assay type: cell-based, human; conditions: 1 or 2 days culture, FIG. 3b
Description: as §4, §5

Abl protein = assay: Abl expression status by flow cytometry and immunoblot; assay type: cell-based, human; conditions: anti-c-Abl antibody, FIG. 4b, 4c
Excerpt: (§6) FIG. 4(b) Immuno-blot-based determination of Abl phosphorylation status. Cells were harvested, lysed, equivalent amount Iysates were separated by SDS-P AGE and electrotransferred. The filters were probed with anti-phospho-c-Abl (Tyr 245) (upper panels) or anti-c-Abl antibody (middle panels).
FIG. 4(c) Flow cytometric determination of Abl expression status. Cells were permeabilized and stained with rabbit anti-c-Abl antibody. Dotted line, staining with normal rabbit IgG; solid line, staining with immune IgG.
(§7) Immunoblot assay. Cells were harvested, lysed, equivalent amount of lysates were separated by SDS-PAGE and electro-transferred. The filters were probed with anti-caspase-3 antibody (B.D. Pharmingen), anti-c-Abl antibody or anti-phospho-c-Abl antibody (Cell Signaling Technology).
(§8) Flow cytometric determination of Abl phosphorylation or Abl expression status. Cells were permeabelysed, stained with rabbit anti-phospho-c-Abl antibody, anti-c-Abl antibody or control rabbit antibody and analysed in a flow cytometer.

[9] = biological target: T1, Bcr-Abl protein tyrosine kinase (Homo sapiens, UniProt P00519); assay: Abl phosphorylation status by flow cytometry and immunoblot; assay type: cell-based; conditions: 3 h, anti-phospho-c-Abl (Tyr245), FIG. 4a, 4b
T1 construct: triggering apoptosis of Bcr-Abl expressing CML cell line K562; BCR N-terminal portion (natural fusion partner, P11274); endogenous in cells; host or cells: Ph+ cells: K562 and PBMC of Bcr-Abl positive CML patients; the other entry of the earlier key: BCR (P11274, Breakpoint cluster region protein)
T1 sequence (P00519 28-1130 limits assumed): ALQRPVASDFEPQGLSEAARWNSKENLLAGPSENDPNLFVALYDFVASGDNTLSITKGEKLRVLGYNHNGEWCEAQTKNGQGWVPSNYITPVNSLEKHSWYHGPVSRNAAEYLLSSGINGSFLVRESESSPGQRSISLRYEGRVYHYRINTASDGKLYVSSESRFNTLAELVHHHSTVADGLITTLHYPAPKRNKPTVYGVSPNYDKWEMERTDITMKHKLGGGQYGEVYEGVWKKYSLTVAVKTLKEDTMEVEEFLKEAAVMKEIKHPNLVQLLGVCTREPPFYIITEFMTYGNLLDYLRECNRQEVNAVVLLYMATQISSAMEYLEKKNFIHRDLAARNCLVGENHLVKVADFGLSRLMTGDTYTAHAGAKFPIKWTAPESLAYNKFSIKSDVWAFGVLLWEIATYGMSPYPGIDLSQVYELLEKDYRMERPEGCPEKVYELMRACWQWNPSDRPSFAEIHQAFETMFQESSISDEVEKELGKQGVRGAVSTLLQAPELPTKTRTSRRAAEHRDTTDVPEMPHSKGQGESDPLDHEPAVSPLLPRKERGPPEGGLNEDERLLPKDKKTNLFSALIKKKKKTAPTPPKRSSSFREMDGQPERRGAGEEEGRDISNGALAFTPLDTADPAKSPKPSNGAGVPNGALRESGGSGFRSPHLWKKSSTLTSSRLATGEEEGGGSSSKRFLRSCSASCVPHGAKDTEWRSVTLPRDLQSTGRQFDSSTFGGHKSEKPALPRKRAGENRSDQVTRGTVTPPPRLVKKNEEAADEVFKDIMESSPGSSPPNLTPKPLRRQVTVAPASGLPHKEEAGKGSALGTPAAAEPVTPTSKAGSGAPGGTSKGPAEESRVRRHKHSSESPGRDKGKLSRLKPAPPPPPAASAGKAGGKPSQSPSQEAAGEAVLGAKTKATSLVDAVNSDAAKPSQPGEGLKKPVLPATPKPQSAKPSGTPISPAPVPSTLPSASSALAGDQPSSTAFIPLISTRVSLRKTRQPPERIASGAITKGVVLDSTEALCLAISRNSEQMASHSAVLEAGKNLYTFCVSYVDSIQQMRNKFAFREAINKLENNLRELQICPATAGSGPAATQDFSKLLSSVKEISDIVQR
Description: FIG. 4(a) Flow cytometric determination of Abl phosphorylation status. Cells were left untreated (NT) or incubated with NaChl (T) for 3 h, permeabilized and stained with rabbit anti-phospho-c-Abl (Tyr245) antibody. Dotted line, staining with normal rabbit IgG; solid line, staining with immune IgG.
as §6, §7, §8

[10] = system: STI571-resistant K562 cells (K562-R); assay: Proliferation by [3H]thymidine uptake; assay type: cell-based, human; conditions: 48 h, graded concentrations, FIG. 6
Description: (§9) FIG. 6. […] K562 and K562-R cells were incubated with graded concentrations of ST1571 (A) or NaChl (B) for 48 h, proliferation was then determined by [^3H] thymidine uptake.
K562 cells were incubated with increasing concentrations of STI571 (received as gift in the form of Gleevec from a CML patient receiving Gleevec therapy), and surviving cells were collected by centrifugation and treated with 2-fold higher concentrations of STI571 (Donato, N. J. et al. Blood, 101:690-698, 2003).
(§10) K562 and STI571-resistant K562 cells (K562-R) were incubated with graded concentrations of ST1571 or NaChl for 48 hours, proliferation was then determined by [^3H]thymidine uptake.

K562 cells [11] = assay: Confocal microscopy, Annexin V staining; assay type: cell-based, human; conditions: K562, FIG. 3c
Description: (§11) FIG. 3(e). Fluorescence images of K562 and Molt-4 cells after treatment with NaChl followed by staining with annexin V-Allexa™ staining with annex in V are shown in left panels and bright filed phase contrast views are shown in right panels.
(§12) Confocal microscopy. K562 and Molt-4 cells were treated with NaChl followed by staining with Annexin-V -Allexa™ as described in example 5, and allowed to adhere onto poly-L-lysine-coated coverslips for 10 min. Representative fields of cells were analysed with a Leica TCS SP2 confocal laser scanning microscope (Heidelberg, Germany).

[12] = system: STI571-sensitive K562 cells; assay: Proliferation by [3H]thymidine uptake; assay type: cell-based, human; conditions: 48 h, graded concentrations, FIG. 6
Description: as §9, §10

Molt-4 cells [13] = assay: Confocal microscopy, Annexin V staining; assay type: cell-based; conditions: Molt-4, FIG. 3c
Description: as §11, §12

Molt-4 cells [14] = assay: Apoptosis by flow cytometry (annexin V-FITC/PI); assay type: cell-based; conditions: 67.5 nmole/10^5 cells, 6 h, FIG. 3a
Description: as §1, §2

[15] = system: Philadelphia chromosome (Bcr-Abl) positive CML patients PBMC; assay: Viability of CML patients' PBMC; assay type: cell-based, human; conditions: 67.5 nmole/10^5 cells, FIG. 2e; listed as NaChl
Description: as §3
(§13) Culture of Bcr-Abl positive CML cell line (K562), peripheral blood cells of CML patients, Bcr-Abl-negative ALL cell line (Molt-4) and peripheral blood cells of CML patients. Cell count assays were performed by plating cells in the presence of regular growth medium with or without indicated amount of extract, fraction, purified compound and its sodium salt. Each day, viable cells were counted as assessed by exclusion of trypan blue.

[16] = system: Bcr-Abl negative CML patients PBMC; assay: Viability of CML patients' PBMC; assay type: cell-based, human; conditions: 67.5 nmole/10^5 cells, FIG. 2e; listed as NaChl
Description: as §3, §13

Molt-4 cells [17] = assay: Immunoblot detection of caspase 3 activation; assay type: cell-based; conditions: 24 h, FIG. 3d
Description: (§14) FIG. 3(d). Treatment with NaChl leads to activation of procaspase-3 in Ph+ cells. Cells were left untreated or treated with NaChl (T) for 24 h. Cells were harvested, lysed, equivalent amount of lysates were separated by SDS-PAGE and electrotransferred. The filters were probed with anti-caspase-3 that recognize both procaspase3 (32 Kda, upper band) and caspase-3 cleavage product (17 Kda, lower band).
as §7

K562 cells [18] = assay: Immunoblot detection of caspase 3 activation; assay type: cell-based, human; conditions: 24 h, FIG. 3d
Description: as §14, §7

PBMC of normal donors = assay: Immunoblot detection of caspase 3 activation; assay type: cell-based, human; conditions: 24 h, FIG. 3d
Description: as §14, §7

[19] = system: PBMC of Bcr-Abl (Ph) positive CML patients; assay: Immunoblot detection of caspase 3 activation; assay type: cell-based, human; conditions: 24 h, FIG. 3d
Description: as §14, §7

[20] = system: PBMC of Bcr-Abl negative CML patients; assay: Immunoblot detection of caspase 3 activation; assay type: cell-based, human; conditions: 24 h, FIG. 3d
Description: as §14, §7

[21] = PHA 2.5 μg/ml + LPS 1.0 μg/ml + Chl 25 μg/ml

O=C(/C=C/c1ccc(O)c(O)c1)O[C@@H]1C[C@](O)(C(=O)O)C[C@@H](O)[C@H]1O [chlorogenic acid]
Concentration of Cytokines: IFN-γ ([1]; Chl 25 μg/ml alone): 19.4 pg/mL | Concentration of Cytokines: IL-2 ([1]; Chl 25 μg/ml alone): 6.8 pg/mL | Concentration of Cytokines: IL-6 ([1]; Chl 25 μg/ml alone): 781.9 pg/mL | Concentration of Cytokines: IFN-γ [1, 21]: 13.8 pg/mL | Concentration of Cytokines: IL-2 [1, 21]: 2.5 pg/mL | Concentration of Cytokines: IL-6 [1, 21]: 1899.0 pg/mL | production of IL-2, IFN-γ, and IL-6 by HPBMC after stimulation with PHA and LPS ([1]; PHA and LPS stimulation): significantly inhibited | spontaneous production of IL-2, IFN-γ, and IL-6 by HPBMC ([1]; no stimulation): inhibits | IC50 ([2]; Homo sapiens, in vitro, K562 cells, FIGS. 2C & 2D): 27 µM | killing of K562 cells ([2]; cell count, FIG. 2a-2c): higher killing activity of K562 cells compare to crude extract or fraction E

O=C(/C=C/c1ccc(O)c(O)c1)O[C@@H]1C[C@](O)(C(=O)[O-])C[C@@H](O)[C@H]1O.[Na+] [sodium chlorogenate]
apoptosis (K562 cells [3]): increase in apoptosis | apoptosis (normal PBMC): remain virtually unaffected | apoptosis (normal PBMC; listed as NaChl): did not induce apoptosis | apoptosis [4]: did not induce apoptosis | apoptosis [5]: increase in apoptosis | tumor growth of K562 xenografts (K562 xenografts): reduced the tumor growth in a dose dependent manner | morphological changes in K562 cells (K562 cells [6]): induces morphological changes (nuclear condensation) | DNA cell cycle (K562 cells [7]): induces cell cycle arrest followed by breakdown of DNA | DNA cell cycle [8]: induces cell cycle arrest followed by breakdown of DNA | expression of Abl protein level (Abl protein): without affecting the expression | production of interferon gamma ([1]; statement referring to Table II): significantly inhibits | phosphorylation of Bcr-Abl protein tyrosine kinase [9]: inhibits phosphorilation | apoptosis/proliferation of STI571-resistant K562 cells [10]: induces apoptosis | Annexin V staining (confocal) (K562 cells [11]): positive Annexin V staining | apoptosis/proliferation of STI571-sensitive K562 cells [12]: induces apoptosis | Annexin V staining (confocal) (Molt-4 cells [13]): not in Molt-4 cells | apoptosis (Molt-4 cells [14]): did not induce apoptosis | killing of Bcr-Abl positive CML patients PBMC [15]: active in killing; also recorded: destroys | effect on Bcr-Abl negative CML patients PBMC [16]: no effect; also recorded: without any effects | apoptosis by caspase 3 activation (Molt-4 cells [17]): not in Molt-4 cells | apoptosis by caspase 3 activation (K562 cells [18]): Apoptosis in K562 cells | apoptosis by caspase 3 activation (PBMC of normal donors): not | apoptosis by caspase 3 activation [19]: Apoptosis | apoptosis by caspase 3 activation [20]: not
